# From paper PMC10326435, “Antiprotozoal activity of natural products from Nigerien plants used in folk medicine” (Frontiers in Pharmacology, 2023)
# “And” between values parts separate entries of the source, which are not always exact repeats. Equal values may be shown once. Read-outs that look alike come from different tables or passages of the source.
# What was measured:
# [1] = system: T. b. rhodesiense (STIB900, trypomastigotes); assay: in vitro activity on T. b. rhodesiense, serial dilution assay; format: cell-based, Trypanosoma brucei rhodesiense; settings: for IC50: Trypanosoma brucei; for Selectivity index (SI) T. b. rhodesiense: SI = IC50 cytotoxicity (L6)/IC50 in T. b. rhodesiense
# Method: (§1) The in vitro activity was assessed on T. b. rhodesiense (STIB900, trypomastigotes), T. cruzi (Tulahuen C2C4, intracellular amastigotes), L. donovani (MHOM-ET-67/L82, axenically grown amastigotes), P. falciparum (NF54, intraerythrocytic), and L6 cells (ATCC, CRL-1458™, rat skeletal myoblasts) as previously described ([Bernal et al., 2020]). The activities were determined in serial dilution assays with 72 h compound exposure, respectively 96 h for intracellular T. cruzi. Results are expressed in µg/mL for extracts and in µM for pure compounds. The IC50 values were determined for the compounds only when they were <50 µM.
# [2] = system: T. cruzi (Tulahuen C2C4, intracellular amastigotes); assay: in vitro activity on T. cruzi, serial dilution assay; format: cell-based, Trypanosoma cruzi; settings: for IC50: Trypanosoma cruzi, TULAHUEN; for Selectivity index (SI) T. cruzi: SI = IC50 cytotoxicity (L6)/IC50 in T. cruzi
# Method: as §1
# [3] = system: L. donovani (MHOM-ET-67/L82, axenically grown amastigotes); assay: in vitro activity on L. donovani, serial dilution assay; format: cell-based, Leishmania donovani; settings: for IC50: Leishmania donovani; for Selectivity index (SI) L. donovani: SI = IC50 cytotoxicity (L6)/IC50 in L. donovani
# Method: as §1
# [4] = system: P. falciparum (NF54, intraerythrocytic); assay: in vitro activity on P. falciparum, serial dilution assay; format: cell-based, Plasmodium falciparum; settings: for IC50: Plasmodium falciparum, read-out: IC50 P. falciparum; for Selectivity index (SI) P. falciparum: SI = IC50 cytotoxicity (L6)/IC50 in P. falciparum
# Method: as §1
# cytotoxicity in L6 cells = format: cell-based, rat
# Method: as §1
# [5] = inactive, read-out: IC50 T. b. rhodesiense (inactive)
# [6] = inactive, read-out: IC50 T. cruzi (inactive)
# [7] = inactive, read-out: IC50 L. donovani (inactive)
# [8] = 72 h, 72 h exposure, means of two independent assays ± deviation from the mean, read-out: IC50 T. b. rhodesiense
# [9] = 96 h, 96 h exposure, means of two independent assays ± deviation from the mean, read-out: IC50 T. cruzi
# [10] = 72 h, axenic amastigotes, 72 h exposure, means of two independent assays ± deviation from the mean, read-out: IC50 L. donovani
# [11] = NF54, 72 h, 72 h exposure, means of two independent assays ± deviation from the mean
# [12] = rat, L6 cells (rat skeletal myoblasts, ATCC CRL-1458), rat skeletal myoblast (L6 cells), 72 h exposure, means of two independent assays ± deviation from the mean, read-out: IC50 Cytotoxicity
# [13] = 72 h exposure, means of two independent assays ± deviation from the mean, read-out: IC50 T. b. rhodesiense
# [14] = 72 h, read-out: IC50 L. donovani
# [15] = rat skeletal myoblast (L6 cells), 72 h exposure, means of two independent assays ± deviation from the mean, read-out: IC50 Cytotoxicity
Structure (SMILES),Selectivity index (SI) T. b. rhodesiense [1],"IC50 [1, 8] [µM]","IC50 [2, 9] [µM]","IC50 [3, 10] [µM]",Selectivity index (SI) L. donovani [3],"IC50 [4, 11] [µM]",Selectivity index (SI) P. falciparum [4],IC50 at 72 h (cytotoxicity in L6 cells; [12]) [µM],also measured
CC(C)=CCCc1ccc2c(c1O)C(=O)c1ccccc1C2=O [Compound 28],–,–,–,–,–,–,–,–,"IC50 [1, 5]: > 50 µM; IC50 [2, 6]: > 50 µM; IC50 [3, 7]: > 50 µM; IC50 ([4]; NF54, abstract and b45 text): > 50 µM"
CC(C)=CC[C@@]12O[C@@H]1C(O)c1c(O)ccc(O)c1C2=O (stereo partly shown) [Compound 25],7.6,2.5 ± 0.1,> 50,12.7 ± 5.3,1.5,14 ± 1.9,1.4,19 ± 2.3,–
"CN[C@@H](Cc1ccccc1)C(=O)N[C@@H]1C(=O)N[C@@H](CC(C)C)C(=O)N/C=C\c2ccc(cc2)O[C@H]1C(C)C [Compound 7, sanjoinine B]",–,> 50,> 50,> 50,–,23.1 ± 9,> 6.0,> 50,–
"CC(C)C[C@@H]1NC(=O)[C@@H](NC(=O)[C@H](Cc2c[nH]c3ccccc23)N(C)C)[C@H](C(C)C)Oc2ccc(cc2)/C=C\NC1=O [Compound 9, nummularine K]",2.7,12.7 ± 3.8,43.6 ± 7.1,> 50,–,20.7 ± 5.8,1.6,33.6 ± 4.9,Selectivity index (SI) T. cruzi [2]: 0.8
CC(C)=CC[C@@]12O[C@@H]1C(=O)c1c(O)ccc(O[C@@H]3O[C@H](CO)[C@@H](O)[C@H](O)[C@H]3O)c1C2=O [Compound 26],1.2,9.9 ± 4.5,39.2 ± 5,3.5 ± 0.5,3.5,9 ± 5.4,1.4,12.2 ± 1.8,Selectivity index (SI) T. cruzi [2]: 0.3
"CCCCCCCCCCCCCCCCOP(=O)([O-])OCC[N+](C)(C)C [Miltefosine, reference compound]",–,–,–,0.52 ± 0.07,–,–,–,–,"IC50 ([3]; 72 h, Table 2, 72 h exposure, means of two (C. sieberiana three) independent experiments, read-out: IC50 L. donovani): 0.282 µg/mL"
"Nc1nc(N)nc(Nc2ccc([As]3SCC(CO)S3)cc2)n1 (stereo not shown) [Melarsoprol, reference compound]",–,–,–,–,–,–,–,–,"IC50 ([1]; 72 h, read-out: IC50 T. b. rhodesiense): 0.005 µg/mL and 16 nM"
"C=C(C)[C@@H]1CC[C@]2(C(=O)O)CC[C@]3(C(=O)O)[C@H](CC[C@@H]4[C@@]5(C)C=CC(C)(C)[C@@H]5CC[C@]43C)[C@@H]12 [Compound 17, ceanothenic acid]",–,–,–,–,> 40,–,> 8.0,–,"IC50 [1, 13]: > 50 µM; IC50 ([2]; 96 h, read-out: IC50 T. cruzi): > 50 µM; IC50 [3, 14]: 2.6 ± 0.2 µM; IC50 ([4]; NF54, 72 h): 13.9 ± 4 µM; IC50 at 72 h (cytotoxicity in L6 cells; [15]): > 50 µM"
"O=C(Cn1ccnc1[N+](=O)[O-])NCc1ccccc1 [Benznidazole, reference compound]",–,–,2.3 ± 0.2,–,–,–,–,–,"IC50 ([2]; 96 h, Table 2, 96 h exposure, means of two independent experiments, read-out: IC50 T. cruzi): 0.667 µg/mL"
C=C(C)C12CCC3(CCC4(C)C(CCC5C6(C)C(C(=O)O)C(O)C(C)(C)C6CCC54C)C31)C(=O)O2 (stereo not shown) [Compound 13],–,> 50,> 50,11.6 ± 2.4,> 9.3,29.1 ± 4.1,> 3.7,–,"IC50 at 72 h (cytotoxicity in L6 cells; rat, IC50 Cytotoxicity): > 50 µM"
CC(C)=CCC1=C(Cl)C(=O)c2c(O)ccc(O)c2C1=O [Compound 21],15.8,0.5 ± 0.3,21.5 ± 0.2,3 ± 0.4,2.6,9.2 ± 2.1,0.9,7.9 ± 1.3,Selectivity index (SI) T. cruzi [2]: 0.4
"C=C(C)[C@@H]1CC[C@]2(C(=O)O)CC[C@]3(C)[C@H](CC[C@@H]4[C@@]5(C)[C@H](C=O)[C@@H](O)C(C)(C)[C@@H]5CC[C@]43C)[C@@H]12 [Compound 14, colubrinic acid]",–,–,–,–,> 45,–,> 5.5,–,"IC50 [1, 13]: > 50 µM; IC50 ([2]; 96 h, read-out: IC50 T. cruzi): > 50 µM; IC50 [3, 14]: 1.9 ± 0.4 µM; IC50 ([4]; NF54, 72 h): 15.3 ± 4.1 µM; IC50 at 72 h (cytotoxicity in L6 cells; [15]): > 50 µM"
"COc1ccc2cc1/C=C\NC(=O)[C@H](Cc1ccccc1)NC(=O)[C@@H]1[C@H](CCN1C(=O)[C@@H](NC(=O)C(C)N(C)C)C(C)C)O2 (stereo in doubt) [Compound 10, amphibine H]",> 2.5,30.4 ± 4.6,> 50,> 50,–,15.1 ± 0.5,> 5.3,–,"IC50 at 72 h (cytotoxicity in L6 cells; rat, IC50 Cytotoxicity): > 50 µM"
"CCC(C)[C@@H]1NC(=O)[C@@H](NC(=O)[C@H](Cc2ccccc2)N(C)C)[C@H](C(C)C)Oc2ccc(cc2)/C=C\NC1=O (stereo partly shown) [Compound 8, lotusanine A]",–,> 50,> 50,> 50,–,> 50,–,> 50,–
C=C(C)[C@H](O)CC1=C(O)C(=O)c2c(O)ccc(O)c2C1=O [Compound 22],0.8,36 ± 9.4,> 50,7.9 ± 0.9,3.8,> 50,–,30.4 ± 10.6,–
COc1cc([C@@H]2OC[C@@H]3[C@H]2CO[C@H]3c2cc(OC)c(O)c(OC)c2)cc(OC)c1O [Compound 30],0.6,20.2 ± 1.8,29.2 ± 11.4,13.4 ± 2.3,1.0,22.6 ± 2,0.6,–,"Selectivity index (SI) T. cruzi [2]: 0.4; IC50 at 72 h (cytotoxicity in L6 cells; rat, IC50 Cytotoxicity): 13 ± 1.7 µM"
CC(C)=CCCc1ccc2c(c1)C(=O)c1ccccc1C2=O [Compound 27],–,–,–,–,–,–,–,–,"IC50 [1, 5]: > 50 µM; IC50 [2, 6]: > 50 µM; IC50 [3, 7]: > 50 µM; IC50 ([4]; NF54, abstract and b45 text): > 50 µM"
"COc1cc([C@@H]2c3cc4c(cc3[C@H](O)[C@H]3COC(=O)[C@H]23)OCO4)cc(OC)c1OC [Podophyllotoxin, reference compound]",–,–,–,–,–,–,–,–,"IC50 at 72 h (cytotoxicity in L6 cells; Table 2, rat skeletal myoblast (L6 cells), 72 h exposure, read-out: IC50 Cytotoxicity): 8 ng/mL"
"C=C(C)[C@@H]1CC[C@]2(C(=O)O)CC[C@]3(C)[C@H](CC[C@@H]4[C@@]5(C)C[C@@H](O)[C@H](OC(=O)/C=C/c6ccc(O)cc6)C(C)(C)[C@@H]5CC[C@]43C)[C@@H]12 [Compound 18, 3-O-trans-p-coumaroylalphitolic acid]",0.6,25.9 ± 2.6,19.5 ± 0.6,3 ± 0.2,5.3,0.2 ± 0.04,79.0,–,"Selectivity index (SI) T. cruzi [2]: 0.8; IC50 at 72 h (cytotoxicity in L6 cells; rat, IC50 Cytotoxicity): 15.8 ± 6.4 µM"
"CCN(CC)CCCC(C)Nc1ccnc2cc(Cl)ccc12 (stereo not shown) [Chloroquine, reference compound]",–,–,–,–,–,–,–,–,"IC50 ([4]; NF54, 72 h): 0.003 µg/mL and 9 nM"
COC1=CC(=O)C=C(OC)C1=O [Compound 23],–,–,–,–,–,–,–,–,"IC50 [1, 13]: 9.3 ± 3.1 µM; IC50 ([2]; 96 h, read-out: IC50 T. cruzi): > 50 µM; IC50 [3, 14]: 15.1 ± 1 µM; IC50 ([4]; NF54, 72 h): 36.9 ± 15.4 µM; IC50 at 72 h (cytotoxicity in L6 cells; [15]): > 50 µM"
"CCCCCCCCCCCCCCCC(=O)OCC(O)COP(=O)([O-])OCC[N+](C)(C)C (stereo not shown) [Compound 3, 1-palmitoyl-lysolecithin]",–,> 20,–,> 20,–,> 10,–,–,"IC50 ([2]; 96 h, read-out: IC50 T. cruzi): 12.1 ± 2.4 µM; IC50 at 72 h (cytotoxicity in L6 cells; rat, IC50 Cytotoxicity): > 20 µM"
"CC(C)[C@H](NC(=O)[C@H](C)N(C)C)C(=O)N1CC[C@@H]2Oc3ccc(cc3)/C=C\NC(=O)[C@H](Cc3ccccc3)NC(=O)[C@H]21 [Compound 5, mauritine A]",–,–,–,–,–,–,–,–,"IC50 [1, 5]: > 50 µM; IC50 [2, 6]: > 50 µM; IC50 [3, 7]: > 50 µM; IC50 ([4]; NF54, abstract and b45 text): > 50 µM"
